US20200345746A1, “Oxazine Derivative for Use in the Prevention of Alzheimer's Disease in at Risk Patents” (Novartis AG, priority 2016, published 2020)

Tests used:
[1] = 3-month dose-ranging study: plasma pharmacokinetics (Cmax,ss); assay type: in vivo, human; settings: Day 91, 85 mg qd.
[2] = off-target binding or activity
[3] = Drug-drug interaction study: PK of Compound 1 with the strong CYP3A4 inducer rifampicin; assay type: in vivo, human; settings: healthy volunteers, with rifampicin 600 mg q.d. vs Compound 1 alone
[4] = in vivo; settings: C57BL/6, mouse; for AUC(0-t): po, AUCblood (AUC0-24 h)
From the text: Blood samples were used to analyze whole-blood compound levels and were obtained either from tail-vein during the in-life part into EDTA tubes (CB300, Sarstedt, Germany) or from trunk blood at the day of necropsy into EDTA Eppendorf tubes (Milian S A, CatNoTOM-14, Fisher Scientific, Wohlen, Switzerland), or into serum tubes (CB300Z, Sarstedt, Nümbrecht, Germany).
Brain was removed immediately after decapitation, rinsed with saline and sectioned sagitally down the midline. The left half of the cerebellum was used to analyze compound level and was placed into a glass tube (Chromacol, 125×5-SV T051, Welwyn Garden City, United Kingdom), weighed and frozen in dry-ice, the left half of the forebrain (without olfactory bulb) was used for Aβ analysis, and was frozen on a metal plate on dry ice and placed into protein Lo-bind tube (003 0108.116, Eppendorf, Hamburg, Germany).
Ventral and dorsal skin were taken to analyze compound level, weighed and frozen on dry-ice.
Brain samples were mixed with 2 volumes of KH2PO4 buffer and homogenized using the Covaris® device. Skin samples were mixed with approx. 6-fold volumes of methanol/water and homogenized using a Precellys tube. Either 30 μL of blood, brain or skin homogenate were spiked with a structurally related internal standard and subsequently mixed with an at least 6-fold excess volume acetonitrile for protein precipitation. The supernatant was injected directly into the LC/MS/MS system for analysis.
For tissue exposure, only data at 4 and 24 h were available.

[5] = tested on: Aβ40; assay: 3-month dose-ranging study: Aβ40 in CSF; assay type: in vivo, human; settings: for Aβ40 % change from baseline, Mean (SD) / Aβ40 % change from baseline, Median: CSF, 3 months
From the text: This study is listed in ClinicalTrials.gov under the NCT02576639 Identifier code.
The primary purpose of this study was to expand on previous safety and tolerability data obtained over 2-week and 4-week duration in the first in human study and thereby allow initiation of future long-term efficacy trials in subjects at risk of AD. In addition, data relevant for Pharmacokinetic/Pharmacodynamic modeling was obtained in order to support dose selection decisions for future efficacy studies.
In the completed first-in-human and 3-month dose-ranging safety and tolerability clinical studies described in Examples 5 and 6, Aβ concentrations in CSF were obtained by means of lumbar punctures before the first dose (baseline) and respectively after 2 weeks and 3 months of multiple dosing. ApoE4 genotype also was obtained in the subjects who consented. The percent change from baseline in Aβ40 and Aβ42 concentrations was calculated in subjects who took the study treatment and had no major protocol deviation with potential impact on the evaluation of the pharmacodynamic effect. Tables 18 to 21 below provide summary statistics of the percent change from baseline by treatment group and ApoE genotype (E4 heterozygotes versus E4 non-carriers). Only one subject with CSF data was E4 homozygote (from the 3-month dose-ranging safety and tolerability study).

[6] = tested on: Aβ40; assay: Acute PK/PD in APOE4-TR mice: Aβ40 in CSF; assay type: in vivo, mouse; settings: for Average Aβ40 CSF ± SD: n = 6
Description: Compound 1 was formulated as a suspension. Vehicle or compound was given by oral administration in a volume of 10 ml/kg once. Vehicle: 0.1% Tween80 in 0.5% Methylcellulose in water.
Analysis of Aβ40 in Mouse Brain and Aβ40 and Aβ42 in CSF

With C[C@@]1(c2nc(NC(=O)c3ncc(C(F)(F)F)cc3Cl)ccc2F)CO[C@@](C)(C(F)(F)F)C(N)=N1 [Compound 1, N-(6-((3R,6R)-5-amino-3,6-dimethyl-6-(trifluoromethyl)-3,6-dihydro-2H-1,4-oxazin-3-yl)-5-fluoropyridin-2-yl)-3-chloro-5-(trifluoromethyl)picolinamide] the “Cmax, ss, Mean” value [1] was 602 ng/mL, the “off-target binding or activity” value [2] was “no relevant off-target binding or activity” and the “decrease of mean AUC of Compound 1” value [3] was 5-6 fold. For the same compound, the “decrease of mean Cmax of Compound 1” value [3] was 2.5 fold, the Kp [4] was 3.2 and the AUC(0-t) ([4]; 8 umol/kg) was 3.43 µM·h. For the same compound, the AUC(0-t) ([4]; 50 umol/kg) was 28.9 µM·h, the “Aβ40 % change from baseline, Mean (SD)” value ([5]; 2 mg, E4 heterozygotes) was −21 (11) % and the “Aβ40 % change from baseline, Median” value ([5]; 2 mg, E4 heterozygotes) was −18%. For the same compound, the “Aβ40 % change from baseline, Mean (SD)” value ([5]; 2 mg, E4 non-carriers) was −24 (9) %, the “Aβ40 % change from baseline, Median” value ([5]; 2 mg, E4 non-carriers) was −22% and the “Aβ40 % change from baseline, Mean (SD)” value ([5]; 10 mg, E4 heterozygotes) was −67 (7) %. The “Aβ40 % change from baseline, Median” value ([5]; 10 mg, E4 heterozygotes) was −64%, the “Aβ40 % change from baseline, Mean (SD)” value ([5]; 10 mg, E4 non-carriers) was −64 (6) % and the “Aβ40 % change from baseline, Median” value ([5]; 10 mg, E4 non-carriers) was −65%. The “Aβ40 % change from baseline, Mean (SD)” value ([5]; 35 mg, E4 heterozygotes) was −84 (3) %, the “Aβ40 % change from baseline, Median” value ([5]; 35 mg, E4 heterozygotes) was −85% and the “Aβ40 % change from baseline, Mean (SD)” value ([5]; 35 mg, E4 non-carriers) was −82 (5) %. The “Aβ40 % change from baseline, Median” value ([5]; 35 mg, E4 non-carriers) was −83%, the “Aβ40 % change from baseline, Mean (SD)” value ([5]; 85 mg, E4 heterozygotes) was −91 (0) % and the “Aβ40 % change from baseline, Median” value ([5]; 85 mg, E4 heterozygotes) was −91%. For the same compound, the “Aβ40 % change from baseline, Mean (SD)” value ([5]; 85 mg, E4 non-carriers) was −91 (2) %, the “Aβ40 % change from baseline, Median” value ([5]; 85 mg, E4 non-carriers) was −90% and the “difference in CSF Aβ40 and Aβ42 response between ApoE4 carriers and non-carriers” value ([5]; first-in-human (2 weeks) and 3-month studies) was “no difference in CSF Aβ40 and Aβ42 response to treatment”. For the same compound, the “PD steady-state (Aβ lowering) reached after” value ([5]; healthy elderly subjects, once-daily dosing) was 2-3 weeks, the “Aβ40 in CSF percent change from baseline, Difference (90% CI) Cmpd 1-Placebo” value ([5]; month 3, 2 mg QD) was −19.87 (−23.09, −16.65) % and the “Aβ40 in CSF percent change from baseline, LSmean (SE)” value (“Aβ40 in CSF percent change … (SE)” for short) ([5]; month 3, 2 mg QD) was −22.66 (1.355) %. For the same compound, the “Aβ40 in CSF percent change from baseline, Difference (90% CI) Cmpd 1-Placebo” value ([5]; month 3, 10 mg QD) was −60.18 (−63.43, −56.92) %, the “Aβ40 in CSF percent change … (SE)” value ([5]; month 3, 10 mg QD) was −62.96 (1.388) % and the “Aβ40 in CSF percent change from baseline, Difference (90% CI) Cmpd 1-Placebo” value ([5]; month 3, 35 mg QD) was −80.41 (−83.59, −77.22) %. The “Aβ40 in CSF percent change … (SE)” value ([5]; month 3, 35 mg QD) was −83.19 (1.325) %, the “Aβ40 in CSF percent change from baseline, Difference (90% CI) Cmpd 1-Placebo” value ([5]; month 3, 85 mg QD) was −87.62 (−90.93, −84.30) % and the “Aβ40 in CSF percent change … (SE)” value ([5]; month 3, 85 mg QD) was −90.40 (1.429) %. For the same compound, the “Mini AUEC (CSF Aβ40)” value ([6]; 3 μmol/kg acute) was 26%, the “Average Aβ40 CSF ± SD” value ([6]; 3 μmol/kg acute p.o., 4 h) was 0.1308 ± 0.06381 pmol/mL and the “Average Aβ40 CSF ± SD” value ([6]; 3 μmol/kg acute p.o., 24 h) was 0.1402 ± 0.07911 pmol/mL. For the same compound, the “% reduction vs vehicle (CSF Aβ40)” value ([6]; 3 μmol/kg acute, 4 h) was 28%, the “% reduction vs vehicle (CSF Aβ40)” value ([6]; 3 μmol/kg acute, 24 h) was 23% and the “Mini AUEC (CSF Aβ40)” value ([6]; 10 μmol/kg acute) was 37%. The “Average Aβ40 CSF ± SD” value ([6]; 10 μmol/kg acute p.o., 4 h) was 0.07527 ± 0.03356 pmol/mL, the “Average Aβ40 CSF ± SD” value ([6]; 10 μmol/kg acute p.o., 24 h) was 0.1565 ± 0.08348 pmol/mL and the “% reduction vs vehicle (CSF Aβ40)” value ([6]; 10 μmol/kg acute, 4 h) was 59%. The “% reduction vs vehicle (CSF Aβ40)” value ([6]; 10 μmol/kg acute, 24 h) was 14%, the “Mini AUEC (CSF Aβ40)” value ([6]; 30 μmol/kg acute) was 77% and the “Average Aβ40 CSF ± SD” value ([6]; 30 μmol/kg acute p.o., 4 h) was 0.02533 ± 0.01093 pmol/mL. For the same compound, the “Average Aβ40 CSF ± SD” value ([6]; 30 μmol/kg acute p.o., 24 h) was 0.06083 ± 0.03445 pmol/mL, the “% reduction vs vehicle (CSF Aβ40)” value ([6]; 30 μmol/kg acute, 4 h) was 86% and the “% reduction vs vehicle (CSF Aβ40)” value ([6]; 30 μmol/kg acute, 24 h) was 67%.
